Data on 5 compounds can be found in US8022205B2, “Pyrimidine derivatives as PI3K inhibitor and use thereof” (Chugai Seiyaku Kabushiki Kaisha, priority 2006, dated 2011).

The target of one experiment is human PI3K(p110α/p85α) (Homo sapiens, UniProt P42336). The experiment in a line: Measurement of PI3K inhibitory activity (AlphaScreen GST Detection Kit). The experiment is classed as biochemical. To be noted: 10 μM ATP, 4 μM PI(4,5)P2, read-out: Enzyme inhibitory activity (IC50, μM) PI3K α. Summed up:
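AlphaScreen read-out: after 1 h at room temperature, GST-GRP1, biotin-PI(3,4,5)P3 and donor/acceptor beads sensed PIP3 made by the enzyme. The kinase reaction used baculovirus-made human PI3K p110α/p85α with 10 μM ATP and 4 μM PI(4,5)P2 for 15 min at 37 °C, following a 20-min compound preincubation.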

Experiment [1] has as its system human prostate cancer cell line PC3. In words: Cell proliferation inhibitory activity (Cell Counting Kit-8), prostate cancer PC3. Format: cell-based. To be noted: 96 h, PC3, 4 days. Summed up: (§1)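 PC3 (3000 cells/well) or NCI-H460 (1000 cells/well) exposed to compound for 4 days at 37 °C in CO2. CCK-8 absorbance at 450 nm (reference 615 nm); percent proliferation inhibition calculated at 2.5 µM.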

Experiment [2] has as its system human colon cancer cell line HCT116. In words: Cell proliferation inhibitory activity (Cell Counting Kit-8), colon cancer HCT116. The experiment is classed as cell-based. The settings on record: HCT-116, 96 h, HCT116, 4 days. Summed up: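 HCT116 cells (2000/well) were exposed to compounds for 4 days at 37 °C under CO2. Viability was then read with CCK-8 as absorbance at 450 nm (reference 615 nm).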

For experiment [3], the system named is human lung cancer cell line NCI-H460. In words: Cell proliferation inhibitory activity (Cell Counting Kit-8), lung cancer NCI-H460. Format: cell-based. To be noted: 96 h, NCI-H460, 4 days, read-out: Cell proliferation inhibitory activity (% Inhibition at 2.5 μM) Non-small cell lung cancer (NCI-H460). Summed up: as §1

Chain of human PI3K(p110α/p85α) (P42336 whole entry): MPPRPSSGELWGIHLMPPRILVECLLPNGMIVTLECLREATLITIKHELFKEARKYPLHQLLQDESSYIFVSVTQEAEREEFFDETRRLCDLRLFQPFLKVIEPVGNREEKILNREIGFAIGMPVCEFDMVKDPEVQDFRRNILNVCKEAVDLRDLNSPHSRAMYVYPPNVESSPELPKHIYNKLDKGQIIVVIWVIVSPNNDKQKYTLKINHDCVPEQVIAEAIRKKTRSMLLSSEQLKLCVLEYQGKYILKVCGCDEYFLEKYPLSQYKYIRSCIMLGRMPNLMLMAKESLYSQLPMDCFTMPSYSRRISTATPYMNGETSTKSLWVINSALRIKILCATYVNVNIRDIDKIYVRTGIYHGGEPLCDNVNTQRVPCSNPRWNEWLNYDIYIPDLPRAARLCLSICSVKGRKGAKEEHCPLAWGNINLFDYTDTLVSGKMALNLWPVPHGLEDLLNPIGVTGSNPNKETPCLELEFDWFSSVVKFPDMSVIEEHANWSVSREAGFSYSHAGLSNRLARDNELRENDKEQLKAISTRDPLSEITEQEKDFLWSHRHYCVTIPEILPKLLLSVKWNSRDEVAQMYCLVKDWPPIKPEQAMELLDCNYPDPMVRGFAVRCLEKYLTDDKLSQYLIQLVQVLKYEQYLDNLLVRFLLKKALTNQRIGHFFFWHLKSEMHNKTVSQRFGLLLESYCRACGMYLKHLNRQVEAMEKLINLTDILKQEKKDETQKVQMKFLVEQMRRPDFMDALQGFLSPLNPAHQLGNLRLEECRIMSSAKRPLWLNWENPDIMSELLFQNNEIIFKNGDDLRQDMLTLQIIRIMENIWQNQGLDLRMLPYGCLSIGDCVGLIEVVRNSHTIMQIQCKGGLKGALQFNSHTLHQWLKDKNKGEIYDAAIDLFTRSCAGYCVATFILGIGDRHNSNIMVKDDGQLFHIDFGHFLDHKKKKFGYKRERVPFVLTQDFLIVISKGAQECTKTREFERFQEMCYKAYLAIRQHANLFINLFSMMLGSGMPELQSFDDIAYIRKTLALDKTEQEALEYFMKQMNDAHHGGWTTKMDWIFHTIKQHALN
Chain of human PI3K(p110α/p85α) (P27986 whole entry partner): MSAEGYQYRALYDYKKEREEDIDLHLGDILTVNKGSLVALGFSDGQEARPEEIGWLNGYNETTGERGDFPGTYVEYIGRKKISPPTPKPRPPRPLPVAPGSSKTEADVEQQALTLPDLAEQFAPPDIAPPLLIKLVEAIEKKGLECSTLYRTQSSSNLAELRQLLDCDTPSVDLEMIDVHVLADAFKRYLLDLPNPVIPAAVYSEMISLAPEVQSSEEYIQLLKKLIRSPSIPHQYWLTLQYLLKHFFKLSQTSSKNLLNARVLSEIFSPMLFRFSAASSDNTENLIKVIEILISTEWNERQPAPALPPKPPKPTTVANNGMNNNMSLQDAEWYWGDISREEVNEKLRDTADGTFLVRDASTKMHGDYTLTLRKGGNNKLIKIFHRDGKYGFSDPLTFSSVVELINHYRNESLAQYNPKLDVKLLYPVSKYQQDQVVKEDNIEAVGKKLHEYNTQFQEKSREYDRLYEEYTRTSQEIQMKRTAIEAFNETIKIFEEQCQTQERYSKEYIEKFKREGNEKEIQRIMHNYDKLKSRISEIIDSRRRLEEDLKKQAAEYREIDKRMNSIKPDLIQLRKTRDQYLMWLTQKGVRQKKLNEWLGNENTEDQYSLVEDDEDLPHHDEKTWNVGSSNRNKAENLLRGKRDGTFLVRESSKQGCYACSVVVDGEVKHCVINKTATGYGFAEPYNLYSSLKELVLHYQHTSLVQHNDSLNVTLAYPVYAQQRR

As for `Nc1ncc(-c2nc(N3CCOCC3)nc3c2CCN3c2ccc(C(=O)N3CCN(c4cccnc4)CC3)cc2F)cn1` [Example D-21, {4-[4-(2-Amino-pyrimidin-5-yl)-2-morpholin-4-yl-5,6-dihydro-pyrrolo[2,3-d]pyrimidin-7-yl]-3-fluoro-phenyl}-(4-pyridin-3-yl-piperazin-1-yl)-methanone], the half-maximal inhibitory concentration (IC50) on human PI3K(p110α/p85α) was 0.01 µM. Besides, the inhibition at 2.5 µM in experiment [1] was determined as 100%; in experiment [2], 77%; in experiment [3] it was 79%.

`CCN1CCN(c2cc(F)c(NC(=O)N3CCc4c(-c5cnc(N)nc5)nc(N5CCOCC5)nc43)c(F)c2)CC1` [Example D-18, 4-(2-Amino-pyrimidin-5-yl)-2-morpholin-4-yl-5,6-dihydro-pyrrolo[2,3-d]pyrimidine-7-carboxylic acid [4-(4-ethyl-piperazin-1-yl)-2,6-difluoro-phenyl]-amide]: the IC50 at human PI3K(p110α/p85α) was 0.022 µM. Besides, the inhibition at 2.5 µM in experiment [1] was found to be 93%; in experiment [2] it was 100%; in experiment [3], 102%.

As for `Cc1ccc(C(=O)N2CCOCC2)cc1N1CCc2c(-c3cnc(N)nc3)nc(N3CCOCC3)nc21` [Example D-25, {3-[4-(2-Amino-pyrimidin-5-yl)-2-morpholin-4-yl-5,6-dihydro-pyrrolo[2,3-d]pyrimidin-7-yl]-4-methyl-phenyl}-morpholin-4-yl-methanone], on human PI3K(p110α/p85α), the IC50 came out at 0.22 µM. In addition, the inhibition at 2.5 µM in experiment [1] was 55%; in experiment [2], 61%; in experiment [3], 57%.

As to `Nc1ccc(-c2nc(N3CCOCC3)nc3c2CCN3c2ccncc2)nc1` [Example B-55, 6-(2-Morpholin-4-yl-7-pyridin-4-yl-6,7-dihydro-5H-pyrrolo[2,3-d]pyrimidin-4-yl)-pyridin-3-ylamine], the IC50 at human PI3K(p110α/p85α) is 0.34 µM. For the same compound, the inhibition at 2.5 µM in experiment [1] stood at 47%; in experiment [2], 79%; in experiment [3], 58%.

Regarding `Nc1ncc(-c2nc(N3CCOCC3)nc3c2CCN3c2ccc(CNCc3cccnc3)cc2)cn1` [Example D-334], the 50% inhibitory concentration (IC50) at human PI3K(p110α/p85α) was found to be 0.2 µM. Also, the inhibition at 2.5 µM turned out to be 90% in experiment [1], 93% in experiment [2] and 94% in experiment [3].
